{"source": "patent US20040102468A1", "about": "(Gruenenthal GmbH, priority 2001, published 2004)", "key": {"[1]": {"system": "female Sprague-Dawley rats with oxyhaemoglobin-induced bladder overactivity", "test": "Cystometry on conscious damaged rats (oxyhaemoglobin-induced bladder overactivity, urgency incontinence model)", "type": "in vivo, rat", "settings": "OxyHb 2.5 × 10^−4 M alone"}, "rat": {"system": "rat", "settings": "rat model of rhythmic bladder contractions; cited from earlier work"}}, "data": [{"compound": "oxyhaemoglobin [OxyHb]", "values": [{"measurement": "BC bladder capacity, after (a)", "setting": "[1]; n=5", "value": "a: 0.65 ± 0.06 ml"}, {"measurement": "BC bladder capacity, change (dif.) compared with the pre-value", "setting": "[1]; n=5", "value": "dif.: −29.3%"}, {"measurement": "ICI intercontraction interval, after (a)", "setting": "[1]; n=5", "value": "a: 3.33 ± 0.18 min"}, {"measurement": "ICI intercontraction interval, change (dif.) compared with the pre-value", "setting": "[1]; n=5", "value": "dif.: −32.9%"}, {"measurement": "MP micturition pressure, after (a)", "setting": "[1]; n=5", "value": "a: 97 ± 5 cm H2O"}, {"measurement": "MP micturition pressure, change (dif.) compared with the pre-value", "setting": "[1]; n=5", "value": "dif.: +64.4%"}, {"measurement": "TP threshold pressure, after (a)", "setting": "[1]; n=5", "value": "a: 9.84 ± 1.56 cm H2O"}, {"measurement": "TP threshold pressure, change (dif.) compared with the pre-value", "setting": "[1]; n=5", "value": "dif.: +12.8%"}, {"measurement": "BC bladder capacity, before (b)", "setting": "[1]; n=5, pre-value", "value": "b: 0.92 ± 0.10 ml"}, {"measurement": "ICI intercontraction interval, before (b)", "setting": "[1]; n=5, pre-value", "value": "b: 4.96 ± 0.33 min"}, {"measurement": "MP micturition pressure, before (b)", "setting": "[1]; n=5, pre-value", "value": "b: 59 ± 8 cm H2O"}, {"measurement": "TP threshold pressure, before (b)", "setting": "[1]; n=5, pre-value", "value": "b: 8.72 ± 1.31 cm H2O"}]}, {"compound": "COc1cccc(C2(O)CCCCC2CN(C)C)c1", "note": "(stereo not shown) [tramadol]", "values": [{"measurement": "effect on bladder function", "setting": "rat", "value": "positive effect on bladder function"}]}]}
